Each structure is given as a SMILES string.

The subject of experiment [1] is Culexpipienspallens. Nature of the experiment: Test Example 3: spray knockdown test on Culexpipienspallens imagoes. It is filed as in vivo. The settings on record: 0.25 h, oil solution 0.1% w/v, 0.5 ml sprayed, within 15 minutes, read-out: knockdown ratio of the test vermin within 15 minutes. Here is the method: A formulation containing each of the present amide compounds (1), (2), (4), (5), (6), (7), (8), (9), (10), (12), (13), (14), (15), (16), (18), (19), (21), (22), (24), (25), (26) and (27) prepared in accordance with Formulation Example 7 was diluted with an isopropyl alcohol/deodorized kerosine=1/9 mixed liquid so that the active ingredient concentration became 0.1% w/v, to prepare a drug solution for a test.
Ten imagoes of Culexpipienspallens were allowed to release in a polyethylene cup (bottom surface diameter 10.6 cm), and the cup was covered with a 16 mesh nylon gauze. The polyethylene cup was arranged on a bottom of a chamber for a test (bottom surface: 46 cm×46 cm, height: 70 cm). From a height of 30 cm from an upper surface of the polyethylene cup, 0.5 ml of the drug solution for a test was sprayed using a spray gun (spraying pressure 0.4 kg/cm^2). After spraying, the cup was immediately taken out from the chamber for a test, the number of knocked down vermin was counted for 15 minutes with time, and a knockdown ratio was obtained. The knockdown ratio was calculated by the following expression.
Knockdown ratio (%)=(number of knocked down vermin/number of test vermin)×100

The test system of experiment [2] is Adoxophyesoranafasciata. The experiment can be described thus: Test Example 8: apple seedling spray test on first instar larvae of Adoxophyesoranafasciata. Particulars: first instar larvae of Adoxophyesoranafasciata on apple seedlings; 500 ppm spray, 20 ml; seven days after spraying. It is filed as in vivo. Here is the method: A formulation of the present amide compound (9) prepared in accordance with Formulation Example 15 was diluted with water so that the active ingredient concentration became 500 ppm, to prepare a spray solution for a test. On the other hand, 20 ml of the spray solution for a test was spraying-treated on each of apple seedlings (28 days after seeding, tree height about 15 cm) planted in a plastic cup. After the drug solution which had spray-treated on the apple was air-dried to an extent that the drug solution was dried, about 30 first instar larvae of Adoxophyesoranafasciata were released. Seven days after spraying, the number of live vermin on an apple seedling was investigated, and a controlling value was obtained according to the following expression. Controlling value (%)={1−(Cb×Tai)/(Cai×Tb)}×100 In addition, letters in the expression indicate the following meanings. Cb: Number of vermin before treatment of non-treated section Cai: Number of vermin at observation of non-treated section Tb: Number of vermin before treatment of treated-section Tai: Number of vermin at observation of treated-section

Consider `O=C(NCC1CCOC1)C1=NOC(CCCCCOc2ccccc2)C1` (centres unmarked) [present amide compound (9), N-(tetrahydrofuran-3-ylmethyl)-5-(5-phenoxypentyl)-4,5-dihydroisoxazole-3-carboxamide], for which the pest or weed control at 0.1 % strength in experiment [1] was not below 80%. Also, in experiment [2], the controlling value was found to be 100%.

Values taken from patent US20170215424A1 (SUMITOMO CHEMICAL COMPANY, LIMITED, priority 2014, published 2017).
